# Assay results from patent publication US20240408047A1, “HYPOXIA INDUCIBLE FACTOR-2(ALPHA) INHIBITORS FOR THE TREATMENT OF BLADDER CANCER” (NIKANG THERAPEUTICS, INC., priority 2021, published 2024).
# What was measured:
# RT112 xenograft model = assay: Anti-tumor effect in mouse bladder cancer xenograft model RT112; type: in vivo, Balb/c Nude mouse; settings: 20 mg/kg bid, 17-30 days
# Description: (§1) Compound 1 was formulated with 0.5% methylcellulose. 4˜10×10^6 tumor cells in PBS and Corning® Matrigel (11 in volume) were inoculated subcutaneously at right flank for each Balb/c Nude mouse at 6-7 weeks of age for tumor development. Once tumors were 100-200 mm^3 in size, the tumor bearing mice were randomly grouped into 2 groups (n=8) and treatment started with vehicle bid and Compound 1 at 20 mg/kg bid, respectively, for 17-30 days. Tumor sizes were measured twice weekly in two dimensions using a caliper and the volumes were expressed in mm^3 using the formula V=0.5×a×b^2 where a and b were the long and short diameters of the tumor, respectively.
# T24 xenograft model = assay: Anti-tumor effect in mouse bladder cancer xenograft model T24; type: in vivo, Balb/c Nude mouse; settings: 20 mg/kg bid, 17-30 days
# Description: as §1
# T24 cells = assay: Hypoxia-induced mRNA upregulation of VEGFA and GLUT1 in T24 cells (quantitative PCR); type: cell-based; settings: 72 h, hypoxic (1% O2), Compound 1 at 1.0 μM
# Description: T24 cells were treated with DMSO or 1.0 μM of Compound 1; control siRNA or siRNA specific for HIF-1α, HIF-2α, for 72 h under normoxic (20% O2) or hypoxic (1% O2) conditions. Total RNA was extracted using RNeasy mini kit (Qiagen, Catalog #74104) and QIAshredder (Qiagen, Catalog #79654). Then RNA was reverse-transcribed into cDNA using Applied Biosystems™ High-Capacity cDNA Reverse Transcription Kit (Applied Biosystems™ cat #4368814). The cDNA was used as templates to examine the mRNA expression of VEGFA and GLUT1 by quantitative polymerase chain reaction (PCR) assays (PowerUp SYBR Green Master Mix by Applied Biosystems™, cat #A25742), with GAPDH serving as control for normalization.
# RT4 xenograft model = assay: Anti-tumor effect in mouse bladder cancer xenograft model RT4; type: in vivo, Balb/c Nude mouse
# Description: as §1
# nectin-4 = settings: patients who progressed following treatment with chemotherapy and immunotherapy; cited from earlier work
molecule,measurement,setting,value
"N#Cc1cc(F)cc(Oc2ccc3c4c2[C@@H](F)C[C@]4(O)C(F)(F)C3(F)F)c1 [Compound 1, 3-fluoro-5-(((1S,2aR)-1,3,3,4,4-pentafluoro-2a-hydroxy-2,2a,3,4-tetrahydro-1H-cyclopenta[cd]inden-7-yl)oxy)benzonitrile]",anti-tumor effect in RT112 xenograft model,RT112 xenograft model,marginal anti-tumor effect
same,anti-tumor effect in T24 xenograft model,T24 xenograft model,complete tumor regression
same,GLUT1 mRNA level induced by hypoxia,T24 cells,significantly suppressed
same,VEGFA mRNA level induced by hypoxia,T24 cells,significantly suppressed
same,anti-tumor effect in RT4 xenograft model,"RT4 xenograft model; 20 mg/kg bid, 17-30 days",significant tumor growth inhibition
same,TGI,"RT4 xenograft model; RT4 model, 20 mg/kg of Compound 1",44%
Enfortumab vedotin,objective response rate,nectin-4,44%
